Results: PubChem BioAssay (NCI)
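Values below derive from 48-hour exposures of cells grown in 96-well plates, with endpoints linearly interpolated between the two concentrations bracketing the appropriate inhibition level. The concentration for full growth arrest is given as TGI.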

Legend:
Test in all cases: NCI-60 cell line screen, 48 h
OVCAR-4 ovarian = test system: OVCAR-4 ovarian
OVCAR-3 ovarian = test system: OVCAR-3 ovarian
SR leukemia = test system: SR leukemia
PC-3 prostate = test system: PC-3 prostate
T-47D breast = test system: T-47D breast
SNB-19 CNS = test system: SNB-19 CNS
UO-31 renal = test system: UO-31 renal
HOP-92 NSCLC = test system: HOP-92 NSCLC
HCC-2998 colon = test system: HCC-2998 colon
BT-549 breast = test system: BT-549 breast
MDA-MB-231 breast = test system: MDA-MB-231 breast
SW-620 colon = test system: SW-620 colon
NCI/ADR-RES ovarian = test system: NCI/ADR-RES ovarian

COC1=C(C(c2cc(OC)c(OC)c(OC)c2)c2cc3c(cc2OC)OCO3)C(=O)OC1 (stereo unspecified)
TGI (OVCAR-4 ovarian): > 95.1 µM | TGI (OVCAR-3 ovarian): > 61 µM | TGI (SR leukemia): > 61.7 µM | TGI (PC-3 prostate): > 70.4 µM | TGI (T-47D breast): > 100 µM | TGI (SNB-19 CNS): > 95.6 µM | TGI (UO-31 renal): 54.9 µM | TGI (HOP-92 NSCLC): > 100 µM | TGI (HCC-2998 colon): > 100 µM | TGI (BT-549 breast): > 100 µM | TGI (MDA-MB-231 breast): > 93.5 µM | TGI (SW-620 colon): > 100 µM | TGI (NCI/ADR-RES ovarian): 26.2 µM

Cc1cccc(Nc2nc3ccccc3nc2NS(=O)(=O)c2ccc(N)cc2)c1
TGI (OVCAR-4 ovarian): 42.6 µM | TGI (OVCAR-3 ovarian): > 100 µM | TGI (SR leukemia): > 100 µM | TGI (PC-3 prostate): > 100 µM | TGI (T-47D breast): > 100 µM | TGI (SNB-19 CNS): > 100 µM | TGI (UO-31 renal): 56.6 µM | TGI (HOP-92 NSCLC): > 100 µM | TGI (HCC-2998 colon): 67.6 µM | TGI (BT-549 breast): > 100 µM | TGI (MDA-MB-231 breast): > 100 µM | TGI (SW-620 colon): > 100 µM | TGI (NCI/ADR-RES ovarian): > 100 µM

C#CCN(Cc1ccc2nc(-c3ccccc3)c(Cl)nc2c1)c1ccc(F)cc1
TGI (OVCAR-4 ovarian): > 100 µM | TGI (OVCAR-3 ovarian): > 100 µM | TGI (SR leukemia): > 100 µM | TGI (PC-3 prostate): > 100 µM | TGI (T-47D breast): > 100 µM | TGI (SNB-19 CNS): > 100 µM | TGI (UO-31 renal): > 100 µM | TGI (HOP-92 NSCLC): > 100 µM | TGI (HCC-2998 colon): > 100 µM | TGI (BT-549 breast): > 100 µM | TGI (MDA-MB-231 breast): > 100 µM | TGI (SW-620 colon): > 100 µM | TGI (NCI/ADR-RES ovarian): > 100 µM

COc1ccc2c(c1)/C(=C/c1c(O)[nH]c(=S)[nH]c1=O)C=N2
TGI (OVCAR-4 ovarian): > 100 µM | TGI (OVCAR-3 ovarian): > 100 µM | TGI (SR leukemia): > 100 µM | TGI (PC-3 prostate): > 100 µM | TGI (T-47D breast): > 100 µM | TGI (SNB-19 CNS): > 100 µM | TGI (UO-31 renal): > 100 µM | TGI (HOP-92 NSCLC): > 100 µM | TGI (HCC-2998 colon): > 100 µM | TGI (BT-549 breast): > 100 µM | TGI (MDA-MB-231 breast): > 100 µM | TGI (SW-620 colon): > 100 µM | TGI (NCI/ADR-RES ovarian): > 100 µM

CC(C)(C)N(Cc1ccccc1)C(=O)/C=C\S(=O)c1ccccc1 (stereo unspecified)
TGI (OVCAR-4 ovarian): 9.25 µM | TGI (OVCAR-3 ovarian): 7.41 µM | TGI (SR leukemia): > 29.6 µM | TGI (PC-3 prostate): 13.2 µM | TGI (T-47D breast): 22.2 µM | TGI (SNB-19 CNS): 23.6 µM | TGI (UO-31 renal): 7.71 µM | TGI (HOP-92 NSCLC): 10.8 µM | TGI (HCC-2998 colon): 15.5 µM | TGI (BT-549 breast): 12.9 µM | TGI (MDA-MB-231 breast): 11.8 µM | TGI (SW-620 colon): 9.13 µM | TGI (NCI/ADR-RES ovarian): 13.7 µM

CCCc1nnc2sc(COc3ccc(OCc4nn5c(CCC)nnc5s4)c(Cl)c3)nn12
TGI (OVCAR-4 ovarian): 74.6 µM | TGI (OVCAR-3 ovarian): > 100 µM | TGI (SR leukemia): 64.1 µM | TGI (PC-3 prostate): > 100 µM | TGI (T-47D breast): 39.6 µM | TGI (SNB-19 CNS): > 100 µM | TGI (UO-31 renal): 31.8 µM | TGI (HOP-92 NSCLC): 80.6 µM | TGI (HCC-2998 colon): 64.1 µM | TGI (BT-549 breast): > 100 µM | TGI (MDA-MB-231 breast): > 100 µM | TGI (SW-620 colon): > 100 µM | TGI (NCI/ADR-RES ovarian): > 100 µM

O=c1[nH]c(=S)[nH]cc1CN1CCOCC1
TGI (OVCAR-4 ovarian): > 100 µM | TGI (OVCAR-3 ovarian): > 100 µM | TGI (SR leukemia): > 100 µM | TGI (PC-3 prostate): > 100 µM | TGI (T-47D breast): > 100 µM | TGI (SNB-19 CNS): > 100 µM | TGI (UO-31 renal): > 100 µM | TGI (HOP-92 NSCLC): > 100 µM | TGI (HCC-2998 colon): > 100 µM | TGI (BT-549 breast): > 100 µM | TGI (MDA-MB-231 breast): > 100 µM | TGI (SW-620 colon): > 100 µM | TGI (NCI/ADR-RES ovarian): > 100 µM
